Measured values taken from US6670446B1, “N1 modified glycopeptides” (Eli Lilly and Company, priority 1998, dated 2003).

Key:
Type in all cases: cell-based
[1] = system: Enterococcus faecalis 2041; assay: MIC, standard broth micro-dilution assay, EF 2041
Procedure: (§1) The antibacterial efficacy of the present compounds is illustrated by Table III. The minimal inhibitory concentrations (MICs) were determined using a standard broth micro-dilution assay.

[2] = system: Staphylococcus aureus X400; assay: MIC, standard broth micro-dilution assay, SA X400
Procedure: as §1

[3] = system: Sensitive Enterococcus faecium and faecalis; assay: MIC, standard broth micro-dilution assay, Sensitive; settings: geometric mean of 4-6 isolates
Procedure: as §1

[4] = system: Staphylococcus aureus 446; assay: MIC, standard broth micro-dilution assay, SA 446
Procedure: as §1

[5] = system: Enterococcus faecalis 276; assay: MIC, standard broth micro-dilution assay, EF 276
Procedure: as §1

Escherichia coli EC14 = assay: MIC, standard broth micro-dilution assay, EC 14
Procedure: as §1

[6] = system: Staphylococcus aureus SA1199; assay: MIC, standard broth micro-dilution assay, SA 1199
Procedure: as §1

[7] = system: Staphylococcus aureus SA1199A; assay: MIC, standard broth micro-dilution assay, SA 1199A
Procedure: as §1

[8] = system: Staphylococcus epidermidis 270; assay: MIC, standard broth micro-dilution assay, SE 270
Procedure: as §1

[9] = system: Staphylococcus aureus 489; assay: MIC, standard broth micro-dilution assay, SA 489
Procedure: as §1

[10] = system: Resistant Enterococcus faecium and faecalis; assay: MIC, standard broth micro-dilution assay, Resistant; settings: geometric mean of 4-6 isolates
Procedure: as §1

[11] = system: Haemophilus influenzae RD; assay: MIC, standard broth micro-dilution assay, HFRD
Procedure: as §1

Enterococcus faecium 180 = assay: MIC, standard broth micro-dilution assay, EF 180
Procedure: as §1

[12] = system: Staphylococcus aureus X778; assay: MIC, standard broth micro-dilution assay, SA X778
Procedure: as §1

[13] = system: Staphylococcus aureus 447; assay: MIC, standard broth micro-dilution assay, SA 447
Procedure: as §1

[14] = system: Staphylococcus aureus S13E
Procedure: as §1

[15] = system: Staphylococcus haemolyticus 415; assay: MIC, standard broth micro-dilution assay, SH 415
Procedure: as §1

[16] = system: Staphylococcus haemolyticus 105; assay: MIC, standard broth micro-dilution assay, SH 105
Procedure: as §1

[17] = system: Enterococcus faecium 180-1; assay: MIC, standard broth micro-dilution assay, EF 180-1
Procedure: as §1

[18] = system: Staphylococcus aureus 491; assay: MIC, standard broth micro-dilution assay, SA 491
Procedure: as §1

[19] = system: Enterococcus gallinarum 245; assay: MIC, standard broth micro-dilution assay, EG 245
Procedure: as §1

Compound	minimal inhibitory concentration (MIC), EF 2041 [1]	minimal inhibitory concentration (MIC), SA X400 [2]	minimal inhibitory concentration (MIC), Sensitive [3]	minimal inhibitory concentration (MIC), SA 446 [4]	minimal inhibitory concentration (MIC), EF 276 [5]	minimal inhibitory concentration (MIC), EC 14 (Escherichia coli EC14)	minimal inhibitory concentration (MIC), SA 1199 [6]	minimal inhibitory concentration (MIC), SA 1199A [7]	minimal inhibitory concentration (MIC), SE 270 [8]	minimal inhibitory concentration (MIC), SA 489 [9]	minimal inhibitory concentration (MIC), Resistant [10]	minimal inhibitory concentration (MIC), HFRD [11]	minimal inhibitory concentration (MIC), EF 180 (Enterococcus faecium 180)	minimal inhibitory concentration (MIC), SA X778 [12]	minimal inhibitory concentration (MIC), SA 447 [13]	minimal inhibitory concentration (MIC), SA S13E [14]	minimal inhibitory concentration (MIC), SH 415 [15]	minimal inhibitory concentration (MIC), SH 105 [16]	minimal inhibitory concentration (MIC), EF 180-1 [17]	minimal inhibitory concentration (MIC), SA 491 [18]	other results
CC1OC(OC2C(Oc3c4cc5cc3Oc3ccc(cc3Cl)[C@@H](O)[C@@H](NC(=O)[C@@H](Cc3ccc(Cl)cc3)NC(=O)OC(C)(C)C)C(=O)N[C@@H](CC(N)=O)C(=O)N[C@H]5C(=O)N[C@H]3C(=O)NC(C(=O)N[C@H](C(=O)O)c5cc(O)cc(O)c5-c5cc3ccc5O)[C@H](OC3CC(C)(N)C(O)C(C)O3)c3ccc(c(Cl)c3)O4)OC(CO)C(O)C2O)CC(C)(N)C1O (stereo partly drawn) [Example 20, N^1-[N-BOC-D-3-(p-chlorophenyl)alanine] derivative of desleucylA82846B]	≦.06	≦.06	2	0.5	0.125	>64	0.125	no growth	0.125	≦.06	>128	8	16	0.25	0.25	0.125	16	8	0.25	≦.06	minimal inhibitory concentration (MIC), EG 245 [19]: 0.5
CC1OC(OC2c3ccc(c(Cl)c3)Oc3cc4cc(c3OC3OC(CO)C(O)C(O)C3OC3CC(C)(NCc5ccc(-c6ccccc6)cc5)C(O)C(C)O3)Oc3ccc(cc3Cl)C(O)C(NC(=O)C(Cc3ccc(Cl)cc3)NC(=O)OC(C)(C)C)C(=O)NC(CC(N)=O)C(=O)NC4C(=O)NC3C(=O)NC2C(=O)NC(C(=O)O)c2cc(O)cc(O)c2-c2cc3ccc2O)CC(C)(N)C1O [Example 28, N^1-[N-BOC-L-3-(p-chlorophenyl)alanine] derivative of N^DISACC-(p-phenylbenzyl)desleucylA82846B]	2	2	1.7	4	1	>64	2	1	1	1	13	>64	2	1	2	2	4	2	0.5	2	minimal inhibitory concentration (MIC), EG 245 [19]: 2
CC1OC(OC2c3ccc(c(Cl)c3)Oc3cc4cc(c3OC3OC(CO)C(O)C(O)C3OC3CC(C)(NCc5ccc(-c6ccccc6)cc5)C(O)C(C)O3)Oc3ccc(cc3Cl)C(O)C(NC(=O)C(N)Cc3ccc(Cl)cc3)C(=O)NC(CC(N)=O)C(=O)NC4C(=O)NC3C(=O)NC2C(=O)NC(C(=O)O)c2cc(O)cc(O)c2-c2cc3ccc2O)CC(C)(N)C1O [Example 22, N^1-[D-3-(p-chlorophenyl)alanine] derivative of N^DISACC-(p-phenylbenzyl)desleucylA82846B]	1	0.5	0.66	1	1	>64	2	0.25	0.25	1	6.7	>64	2	1	1	2	4	2	≦.06	0.5	minimal inhibitory concentration (MIC), EG 245 [19]: 0.25
CC1OC(OC2c3ccc(c(Cl)c3)Oc3cc4cc(c3OC3OC(CO)C(O)C(O)C3OC3CC(C)(NCc5ccc(-c6ccccc6)cc5)C(O)C(C)O3)Oc3ccc(cc3Cl)C(O)C(NC(=O)C3CCCN3)C(=O)NC(CC(N)=O)C(=O)NC4C(=O)NC3C(=O)NC2C(=O)NC(C(=O)O)c2cc(O)cc(O)c2-c2cc3ccc2O)CC(C)(N)C1O [Example 32, N^1-L-proline derivative of N^DISACC-(p-phenylbenzyl)desleucylA82846B]	1	2	0.76	1	2	>64	0.25	≦.06	0.125	1	16	>64	2	0.5	1	0.25	0.5	0.125	0.125	0.125	minimal inhibitory concentration (MIC), EG 245 [19]: 0.5
